Laboratory results published in ChEMBL document CHEMBL1201862, “PubChem BioAssay data set” (2004).
Each block holds one compound with its values, some of them ahead of it. Activity calls are given as the source filed them.

Columns and labels:
Vero = experiment: mammalian cell viability reduction – secondary assay, cytotoxicity control for West Nile virus antiviral project, dose response (AID 1650); format: functional, Chlorocebus sabaeus; details: Chlorocebus sabaeus, Vero
[1] = viability of PTEN-deleted HCT116 cells – cell-based, HCT116 PTEN knockout, dose response (AID 1047); format: functional;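 further: HCT116 colon tumor cells with PTEN knocked out; cells exposed to compound for 60 hours before readout; potency for loss of cell viability measured by luminescence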
[2] = viability of HCT116 lacking mutant beta-catenin – cell-based, human colon tumor, dose response (AID 1045); format: functional;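 further: HCT116 colon tumor cells with beta catenin knocked out; cells exposed to compound for 60 hours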
[3] = molecular target: Induced myeloid leukemia cell differentiation protein Mcl-1 (Homo sapiens, UniProt Q07820); format: functional
Chain of Induced myeloid leukemia cell differentiation protein Mcl-1 (Q07820 whole entry): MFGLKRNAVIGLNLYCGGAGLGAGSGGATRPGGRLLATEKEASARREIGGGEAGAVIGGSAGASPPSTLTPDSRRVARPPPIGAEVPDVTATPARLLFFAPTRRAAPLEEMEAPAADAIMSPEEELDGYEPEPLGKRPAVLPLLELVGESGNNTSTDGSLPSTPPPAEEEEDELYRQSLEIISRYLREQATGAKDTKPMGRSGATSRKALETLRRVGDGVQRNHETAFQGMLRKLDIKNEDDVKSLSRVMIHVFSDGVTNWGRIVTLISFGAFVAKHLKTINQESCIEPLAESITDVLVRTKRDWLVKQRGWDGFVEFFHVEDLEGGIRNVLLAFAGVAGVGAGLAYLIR

Kallikrein-7 = Kallikrein-7 (Homo sapiens, UniProt P49862); experiment: Fluorescence Intensity-based biochemical primary high throughput dose response assay to identify activators of kallikrein-7 (K7) zymogen.
Chain of Kallikrein-7 (P49862 whole entry): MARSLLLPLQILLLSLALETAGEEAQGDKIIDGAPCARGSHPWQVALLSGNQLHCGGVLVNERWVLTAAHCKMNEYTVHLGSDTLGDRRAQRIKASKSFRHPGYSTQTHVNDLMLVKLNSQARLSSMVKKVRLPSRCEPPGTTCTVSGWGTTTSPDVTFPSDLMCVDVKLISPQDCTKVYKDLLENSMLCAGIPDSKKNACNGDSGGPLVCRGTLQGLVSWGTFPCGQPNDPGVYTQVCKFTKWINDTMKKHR

cells [4] = format: functional, cell-based
[5] = molecular target: T1, Trace amine-associated receptor 1 (Homo sapiens, UniProt Q96RJ0); experiment: Fluorescence-based cell-based high throughput dose response assay to identify agonists of the human trace amine associated receptor 1 (TAAR1).; format: functional
T1 sequence (Q96RJ0 whole entry): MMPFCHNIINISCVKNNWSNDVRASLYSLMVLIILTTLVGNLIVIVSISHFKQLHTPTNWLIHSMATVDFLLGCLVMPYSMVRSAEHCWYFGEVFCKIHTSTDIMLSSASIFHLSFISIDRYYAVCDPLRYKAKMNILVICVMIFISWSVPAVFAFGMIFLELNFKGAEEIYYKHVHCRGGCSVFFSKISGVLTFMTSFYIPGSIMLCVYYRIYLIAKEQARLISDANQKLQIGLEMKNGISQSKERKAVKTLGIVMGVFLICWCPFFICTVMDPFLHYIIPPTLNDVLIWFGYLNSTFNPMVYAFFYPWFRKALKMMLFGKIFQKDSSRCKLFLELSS

[6] = molecular target: T1, Trace amine-associated receptor 1; experiment: Counterscreen for agonists of the human trace amine associated receptor 1 (hTAAR1): Fluorescence-based cell-based high throughput dose response assay to identify hTAAR1 agonist that also desensitize TAAR1 receptor response.; format: functional
cells [7] = format: functional, cell-based; remark: listed apart in the source
[8] = molecular target: T2, Corticotropin-releasing factor receptor 2/Corticotropin-releasing factor-binding protein (Homo sapiens, UniProt P24387+Q13324); experiment: Dose Response confirmation of uHTS hits for small molecule antagonists of the CRF-binding protein and CRF-R2 receptor complex.; format: functional; details: read-out: IC50_Mean
T2 sequence (Q13324 whole entry): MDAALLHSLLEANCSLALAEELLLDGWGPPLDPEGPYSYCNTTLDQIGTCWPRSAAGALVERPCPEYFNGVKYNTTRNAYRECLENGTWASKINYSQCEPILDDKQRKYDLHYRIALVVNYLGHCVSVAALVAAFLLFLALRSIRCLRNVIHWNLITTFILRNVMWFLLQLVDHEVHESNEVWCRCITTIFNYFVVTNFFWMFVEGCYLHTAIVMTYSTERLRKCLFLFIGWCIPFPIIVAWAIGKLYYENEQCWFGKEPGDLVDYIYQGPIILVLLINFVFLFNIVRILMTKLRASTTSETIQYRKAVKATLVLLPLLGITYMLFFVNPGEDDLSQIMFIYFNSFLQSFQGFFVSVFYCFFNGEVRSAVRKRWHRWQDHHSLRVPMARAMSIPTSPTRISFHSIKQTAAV
T2 sequence (P24387 whole entry): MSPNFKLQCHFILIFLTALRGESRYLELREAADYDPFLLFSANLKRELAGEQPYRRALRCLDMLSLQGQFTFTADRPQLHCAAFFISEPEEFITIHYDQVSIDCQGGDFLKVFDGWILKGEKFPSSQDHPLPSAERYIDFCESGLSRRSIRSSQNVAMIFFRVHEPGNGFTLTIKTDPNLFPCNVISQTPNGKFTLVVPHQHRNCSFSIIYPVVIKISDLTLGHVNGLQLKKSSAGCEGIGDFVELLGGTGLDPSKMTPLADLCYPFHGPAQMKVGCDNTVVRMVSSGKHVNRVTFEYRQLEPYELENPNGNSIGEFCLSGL

[9] = molecular target: T2, Corticotropin-releasing factor receptor 2/Corticotropin-releasing factor-binding protein; experiment: activators of CRF receptor 2 with binding protein – uHTS hits, confirmation (AID 602473); format: functional; details: read-out: EC50_Mean
[10] = molecular target: T3, Ubiquitin-conjugating enzyme E2 N (Homo sapiens, UniProt P61088); format: functional;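 further: Dose-response confirmation in a TR-FRET assay detecting UBC13-driven polyubiquitin chain formation, inhibition measured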
T3 sequence (P61088 whole entry): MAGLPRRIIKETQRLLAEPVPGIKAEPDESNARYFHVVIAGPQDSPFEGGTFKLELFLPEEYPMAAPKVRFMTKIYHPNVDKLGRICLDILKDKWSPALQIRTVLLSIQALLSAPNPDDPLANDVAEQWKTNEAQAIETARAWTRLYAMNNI

[11] = molecular target: T4, High affinity choline transporter 1 (Homo sapiens, UniProt Q9GZV3); experiment: human choline transporter blockers, potency – cell-based, 5-point CRC, membrane potential dye, dose response (AID 504840); format: functional
T4 sequence (Q9GZV3 whole entry): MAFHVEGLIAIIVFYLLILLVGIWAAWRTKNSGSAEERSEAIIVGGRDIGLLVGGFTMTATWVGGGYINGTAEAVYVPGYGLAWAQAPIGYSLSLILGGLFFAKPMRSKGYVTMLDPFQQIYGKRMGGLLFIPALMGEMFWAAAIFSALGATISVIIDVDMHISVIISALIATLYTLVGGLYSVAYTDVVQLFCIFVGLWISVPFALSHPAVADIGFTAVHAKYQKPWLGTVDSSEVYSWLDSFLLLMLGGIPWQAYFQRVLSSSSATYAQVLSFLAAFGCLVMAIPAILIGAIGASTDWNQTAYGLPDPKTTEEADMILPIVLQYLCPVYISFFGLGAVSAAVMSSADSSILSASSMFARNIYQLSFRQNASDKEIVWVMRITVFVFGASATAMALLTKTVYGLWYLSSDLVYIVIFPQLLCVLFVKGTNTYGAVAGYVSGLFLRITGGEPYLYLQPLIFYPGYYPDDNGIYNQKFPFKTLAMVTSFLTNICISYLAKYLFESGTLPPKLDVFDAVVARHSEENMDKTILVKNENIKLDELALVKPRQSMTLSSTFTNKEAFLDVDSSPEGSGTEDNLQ

[12] = intracellular Trypanosoma cruzi inhibitors in host cells – cell-based, plate reader, cherry-pick samples, set 3, dose response (AID 651818); format: functional;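 further: compounds incubated with infected cells for about four days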
Paired box protein Pax-8 = Paired box protein Pax-8 (Homo sapiens, UniProt Q06710); experiment: PAX8 transcriptional activity inhibition in RMG-I – RMG-I cells, luciferase, cherry-pick, dose response (AID 687027); format: functional, cell-based;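 further: luciferase reporter driven by Pax8 target thyroperoxidase promoter measured by SteadyGlo luminescence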
Chain of Paired box protein Pax-8 (Q06710 whole entry): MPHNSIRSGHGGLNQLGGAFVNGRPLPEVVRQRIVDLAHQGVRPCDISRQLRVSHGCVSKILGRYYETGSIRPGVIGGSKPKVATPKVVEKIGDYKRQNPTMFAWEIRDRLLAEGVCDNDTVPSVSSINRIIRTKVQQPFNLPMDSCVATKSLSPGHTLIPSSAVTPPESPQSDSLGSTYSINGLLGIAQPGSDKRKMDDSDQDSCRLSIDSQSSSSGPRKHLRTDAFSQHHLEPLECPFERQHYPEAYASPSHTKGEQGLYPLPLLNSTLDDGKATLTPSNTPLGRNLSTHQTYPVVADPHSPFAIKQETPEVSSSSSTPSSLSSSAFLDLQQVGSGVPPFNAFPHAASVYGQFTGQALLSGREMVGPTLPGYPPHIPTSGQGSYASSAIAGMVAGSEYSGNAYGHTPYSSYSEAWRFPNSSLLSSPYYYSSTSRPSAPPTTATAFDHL

[13] = general cell-killing toxicity readout – plate reader, dry powder samples, cytotoxicity control for PAX8 inhibitor project, dose response (AID 743021); format: functional, cell-based
[14] = OVCAR8 cell viability loss – plate reader, dry powder samples, PAX8 project, dose response (AID 743197); format: functional, cell-based; details: OVCAR-8
[15] = OVCAR-3 cell viability loss – plate reader, dry powder samples, PAX8 inhibitor project, dose response (AID 743044); format: functional, cell-based
Large T antigen = Large T antigen (Simian virus 40, UniProt P03070); format: functional, Betapolyomavirus macacae;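 further: Confirmatory-stage PubChem screen for compounds that inhibit SV40 T antigen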
Chain of Large T antigen (P03070 whole entry): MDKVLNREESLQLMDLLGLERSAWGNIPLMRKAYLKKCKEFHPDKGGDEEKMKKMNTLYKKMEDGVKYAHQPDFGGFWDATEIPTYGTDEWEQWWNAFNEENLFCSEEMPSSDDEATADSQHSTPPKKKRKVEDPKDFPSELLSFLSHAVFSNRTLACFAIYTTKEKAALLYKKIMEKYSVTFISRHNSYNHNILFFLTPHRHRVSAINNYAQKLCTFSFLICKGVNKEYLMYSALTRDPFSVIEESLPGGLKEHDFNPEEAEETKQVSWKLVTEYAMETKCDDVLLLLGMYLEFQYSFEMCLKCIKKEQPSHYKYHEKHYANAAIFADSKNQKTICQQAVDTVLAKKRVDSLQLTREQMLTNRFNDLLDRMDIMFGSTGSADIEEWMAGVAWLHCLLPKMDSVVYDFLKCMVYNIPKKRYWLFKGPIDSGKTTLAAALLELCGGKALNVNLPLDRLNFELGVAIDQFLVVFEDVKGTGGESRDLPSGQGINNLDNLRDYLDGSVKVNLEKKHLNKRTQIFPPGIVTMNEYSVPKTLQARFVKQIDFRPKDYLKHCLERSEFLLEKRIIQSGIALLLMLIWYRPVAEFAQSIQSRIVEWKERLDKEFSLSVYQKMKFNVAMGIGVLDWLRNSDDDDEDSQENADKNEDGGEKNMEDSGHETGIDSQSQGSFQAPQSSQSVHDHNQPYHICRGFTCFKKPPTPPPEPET

[16] = molecular target: T5, Histone-lysine N-methyltransferase NSD2 (Homo sapiens, UniProt O96028); format: biochemical
T5 sequence (O96028 whole entry): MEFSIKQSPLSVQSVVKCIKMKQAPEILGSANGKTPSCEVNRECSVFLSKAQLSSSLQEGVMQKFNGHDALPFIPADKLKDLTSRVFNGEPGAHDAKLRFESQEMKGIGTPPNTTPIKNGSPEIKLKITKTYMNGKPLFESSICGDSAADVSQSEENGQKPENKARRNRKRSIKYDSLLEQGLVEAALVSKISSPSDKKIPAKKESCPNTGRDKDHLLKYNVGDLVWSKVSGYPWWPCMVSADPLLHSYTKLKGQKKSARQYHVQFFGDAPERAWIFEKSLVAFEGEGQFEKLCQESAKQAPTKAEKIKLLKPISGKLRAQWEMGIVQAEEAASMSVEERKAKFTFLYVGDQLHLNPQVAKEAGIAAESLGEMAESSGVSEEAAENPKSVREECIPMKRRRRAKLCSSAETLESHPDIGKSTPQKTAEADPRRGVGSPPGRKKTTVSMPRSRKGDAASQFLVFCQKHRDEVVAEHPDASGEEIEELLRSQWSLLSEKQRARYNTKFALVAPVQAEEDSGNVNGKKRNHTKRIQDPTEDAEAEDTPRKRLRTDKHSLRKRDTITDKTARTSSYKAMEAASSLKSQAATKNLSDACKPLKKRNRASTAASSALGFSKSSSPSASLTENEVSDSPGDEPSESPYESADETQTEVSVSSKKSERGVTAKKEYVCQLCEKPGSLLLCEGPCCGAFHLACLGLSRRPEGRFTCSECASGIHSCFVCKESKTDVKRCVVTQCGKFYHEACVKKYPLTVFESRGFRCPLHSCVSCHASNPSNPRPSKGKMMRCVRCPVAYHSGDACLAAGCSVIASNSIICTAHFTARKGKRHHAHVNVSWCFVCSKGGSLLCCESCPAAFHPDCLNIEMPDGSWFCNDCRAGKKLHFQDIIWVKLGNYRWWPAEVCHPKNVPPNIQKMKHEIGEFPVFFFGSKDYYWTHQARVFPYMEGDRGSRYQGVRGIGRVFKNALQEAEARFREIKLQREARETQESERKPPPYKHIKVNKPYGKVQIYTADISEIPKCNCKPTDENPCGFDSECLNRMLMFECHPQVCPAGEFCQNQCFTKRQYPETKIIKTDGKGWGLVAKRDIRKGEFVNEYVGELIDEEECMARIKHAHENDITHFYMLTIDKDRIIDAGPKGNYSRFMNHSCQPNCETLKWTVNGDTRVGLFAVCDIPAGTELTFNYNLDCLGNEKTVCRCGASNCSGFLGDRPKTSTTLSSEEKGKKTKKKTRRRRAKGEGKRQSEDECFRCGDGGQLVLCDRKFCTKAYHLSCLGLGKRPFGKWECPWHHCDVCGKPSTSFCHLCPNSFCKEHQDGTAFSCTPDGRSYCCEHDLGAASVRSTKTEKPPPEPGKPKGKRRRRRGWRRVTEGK

Compound: Cn1c(=O)[nH]c(=O)c2c1nc(N1CCCCC1)n2CCCSc1nc2ccccc2s1
CC50 (Vero): > 100 µM (active)

Compound: CCN=c1ccc(Br)cc(C(=O)/C=C/c2c(Cl)cccc2Cl)c1O
CC50 (Vero): > 100 µM (active)
EC50 [1]: 1.92 µM (active)
EC50 [2]: 1.67 µM (active)
IC50 [3]: 2.32 µM (active)

EC50 (Kallikrein-7): > 69.5 µM (inactive)
Compound: Cc1cc(NCCCCO)n2c(nc3ccccc32)c1C#N

Compound: CNCCc1ccccn1
IC50 (cells [4]): > 29.9 µM (inactive)
EC50 [5]: 1.24 µM (active)
IC50 [6]: 6.02 µM (active)
EC50 (cells [7]): > 29.9 µM (inactive)

Compound: CN1C(=O)NC(c2ccccc2)C2=C1CN(CCc1ccccc1)C2=O (stereo not drawn)
IC50 [8]: > 47.1 µM (inactive)
EC50 [9]: > 53 µM (inactive)
IC50 (cells [4]): > 29.9 µM (inactive)
EC50 [5]: 1.03 µM (active)
IC50 [6]: 5.74 µM (active)
EC50 (cells [7]): > 29.9 µM (inactive)

Compound: Cc1cc(C(=O)CN2C(=O)C(=O)N(C3CCCC3)C2=O)c(C)n1CCc1ccccc1
IC50 (cells [4]): > 29.9 µM (inactive)
EC50 [5]: 1.89 µM (active)
IC50 [6]: 3.28 µM (active)
EC50 (cells [7]): > 29.9 µM (inactive)

IC50 [10]: > 20 µM (inactive)
IC50 [11]: 12.3 µM (active)
Compound: NC(=O)CCCn1c(C(=O)c2cc(Cl)c(N)c(Cl)c2)c2ccc([N+](=O)[O-])cc2[n+]1[O-]

EC50 (Kallikrein-7): 8.16 µM (active)
Compound: CN(C)c1cccc2c(S(=O)(=O)NC(=O)[C@H]3O[C@@H](n4cnc5c(N)ncnc54)[C@H](O)[C@@H]3O)cccc12

Compound: COc1cccc(Nc2nc(C(N)COCc3ccccc3)cs2)n1 (stereo not drawn)
IC50 (cells [4]): 21.9 µM (inactive)
EC50 [5]: 2.55 µM (active)
IC50 [6]: 8.79 µM (active)
EC50 (cells [7]): 22.2 µM (inactive)

Compound: Cc1ccc(S(=O)(=O)Nc2ccc3c(c2)CC(=O)N([C@@H](C)CO)C[C@@H](C)[C@@H](CN(C)Cc2ccc(Oc4ccccc4)cc2)O3)cc1
AC50 [12]: 4.9 µM (active)

Compound: C[C@@H]1CN([C@@H](C)CO)C(=O)c2cccc(NC(=O)c3ccc(-c4nccs4)cc3)c2O[C@H]1CN(C)CC1CCCCC1
AC50 [12]: 4.06 µM (active)

Compound: C[C@H]1CN([C@@H](C)CO)C(=O)Cc2cc(NC(=O)C3CC3)ccc2O[C@@H]1CN(C)Cc1ccc(C(F)(F)F)cc1
AC50 [12]: 3.25 µM (active)

Compound: O=C(N/N=C/c1ccc(-c2cccc(Cl)c2)o1)c1ccccn1
AC50 [12]: 0.15 µM (active)

Compound: Cc1noc(C)c1S(=O)(=O)Nc1ccc2c(c1)C(=O)N([C@H](C)CO)C[C@H](C)[C@@H](CN(C)Cc1ccc(C(=O)Nc3ccccc3N)cc1)O2
AC50 [12]: 1.4 µM (active)

Compound: C[C@@H]1CCCCO[C@H](CN(C)Cc2ccc(Cl)c(Cl)c2)[C@@H](C)CN([C@H](C)CO)C(=O)c2cc(NC(=O)Nc3cccc4ccccc34)ccc2O1
AC50 [12]: 3.72 µM (active)

Compound: COc1ccc(CN(C)C[C@@H]2OCCCC[C@H](C)Oc3ccc(NS(=O)(=O)c4ccc(C)cc4)cc3C(=O)N([C@H](C)CO)C[C@H]2C)cc1
AC50 (Paired box protein Pax-8): 16.8 µM (active)
AC50 [13]: 64.6 µM (active)
AC50 [14]: 44.6 µM (active)

Compound: C[C@@H]1CCCCO[C@H](CN(C)Cc2ccccc2)[C@@H](C)CN([C@@H](C)CO)C(=O)c2cc(NC(=O)Nc3ccc(C(F)(F)F)cc3)ccc2O1
AC50 (Paired box protein Pax-8): 19 µM (active)
AC50 [15]: 44.5 µM (active)
AC50 [14]: 33.6 µM (active)

Compound: C[C@@H]1CN([C@H](C)CO)S(=O)(=O)c2ccc(C#Cc3ccncc3)cc2O[C@H]1CN(C)C(=O)C1CCCCC1
AC50 (Paired box protein Pax-8): 3.13 µM (active)
AC50 [15]: 17.1 µM (active)

EC50 (Kallikrein-7): > 69.6 µM (inactive)
Compound: CC(C)Nc1nc(-c2ccccc2CO)c2sccc2n1

IC50 (Large T antigen): 11.7 µM (active)
AC50 [16]: 8.78 µM (active)
Compound: O=c1c2ccccc2nc(COc2ccccc2)n1/N=C/c1ccc(O)c(O)c1

Compound: c1ccc(CCNc2ncnc3[nH]cnc23)cc1
IC50 (cells [4]): > 29.9 µM (inactive)
EC50 [5]: 3.94 µM (active)
IC50 [6]: 8.92 µM (active)
EC50 (cells [7]): > 29.9 µM (inactive)
